Source: ChEMBL document CHEMBL1240359, “Micafungin concentrations from brain tissue and pancreatic pseudocyst fluid” (Antimicrob Agents Chemother, 2010)
The source made the active and inactive calls. No cut-off for these calls is given here. Starred links: 1 amine or outer side, 2 acyl side, 3 side chain; linkers in the order of their positions; H or OH if unused. Positions of bridges follow the written chain, without caps; N, C: chain ends. Non-standard residues stand in square brackets, D forms with d. Residues, ends and D or L forms follow the SMILES beside them. *: point of attachment. hTyr(3S-OH,4S-OH,3'-OSO3H) = N[C@H](C(=O)O)[C@H](O)[C@@H](O)c1ccc(O)c(OS(=O)(=O)O)c1; Orn(4R-OH,5R-OH) = O=C([C@H](C[C@@H](O)[C@@H](O)N[*:3])N[*:1])[*:2]; Pro(3S-OH,4S-Me) = C[C@H]1CN[C@H](C(=O)O)[C@H]1O; X1 = CCCCCOc1ccc(-c2cc(-c3ccc(C(=O)*)cc3)no2)cc1; Gln(3R-OH) = NC(=O)C[C@@H](O)[C@H](N)C(=O)O; Hyp = O=C(O)[C@@H]1C[C@@H](O)CN1

Tests used:
[1] = Plasma concentration in patient with invasive candidiasis measured 23 hrs post last dose by HPLC; assay type: ADME, organism-based; details: human
[2] = Drug level in brain of patient with invasive candidiasis measured 23 hrs post last dose by HPLC; assay type: ADME, tissue-based; details: human, read-out: Drug uptake
[3] = Drug level in pancreatic pseudocyst fluid of patient with invasive candidiasis measured 24 hrs post last dose by HPLC; assay type: ADME; details: human, read-out: Drug uptake
[4] = Drug level in rabbit brain at 0.5 mg/kg/day, iv for 8 days measured 30 mins after last dose; assay type: ADME, organism-based, Oryctolagus cuniculus; design: route intravenous; details: read-out: Drug uptake
[5] = Drug level in rabbit brain at 1 mg/kg/day, iv for 8 days measured 30 mins after last dose; assay type: ADME, organism-based, Oryctolagus cuniculus; design: route intravenous; details: read-out: Drug uptake
[6] = Drug level in rabbit brain at 2 mg/kg/day, iv for 8 days measured 30 mins after last dose; assay type: ADME, organism-based, Oryctolagus cuniculus; design: route intravenous; details: read-out: Drug uptake
[7] = Drug level in rabbit lung at 0.5 to 2 mg/kg/day, iv for 8 days measured 30 mins after last dose; assay type: ADME, organism-based, Oryctolagus cuniculus; design: route intravenous; details: read-out: Drug uptake
[8] = Drug level in rabbit kidney at 0.5 to 2 mg/kg/day, iv for 8 days measured 30 mins after last dose; assay type: ADME, organism-based, Oryctolagus cuniculus; design: route intravenous; details: read-out: Drug uptake
Candida albicans = assay: Antimicrobial activity against Candida albicans infected in neutropenic rabbit model of disseminated candidiasis assessed as reduction in brain microbial burden at 0.25 to 2 mg/kg/day for 10 days; assay type: functional, organism-based

CCCCCOc1ccc(-c2cc(-c3ccc(C(=O)N[C@H]4C[C@@H](O)[C@@H](O)NC(=O)[C@@H]5[C@@H](O)[C@@H](C)CN5C(=O)[C@H]([C@H](O)CC(N)=O)NC(=O)[C@H]([C@H](O)[C@@H](O)c5ccc(O)c(OS(=O)(=O)O)c5)NC(=O)[C@@H]5C[C@@H](O)CN5C(=O)[C@H]([C@@H](C)O)NC4=O)cc3)no2)cc1 [MICAFUNGIN] (X1-[Orn(4R-OH,5R-OH)]T[Hyp][hTyr(3S-OH,4S-OH,3'-OSO3H)][Gln(3R-OH)][Pro(3S-OH,4S-Me)]; lactam 1-C)
concentration at 23 h [1]: 1580 ng/mL | concentration at 23 h [2]: 280 ng/mL | concentration at 24 h [3]: 380 ng/mL | concentration at 0.5 h [4]: 80 ng/g | concentration at 0.5 h [5]: 100 ng/g | concentration at 0.5 h [6]: 180 ng/g | concentration at 0.5 h [7]: 2260 ng/g | concentration at 0.5 h [8]: 1400 ng/g | inhibition (Candida albicans): Active
